Assay results: ChEMBL document CHEMBL4725357, “Elucidating the Structural Requirement of Uridylpeptide Antibiotics for Antibacterial Activity” (J Med Chem, 2020)
≈ marks a conversion by molar mass, not a printed value.

What was measured:
[1] = system: Pseudomonas aeruginosa; assay: Antibacterial activity against Pseudomonas aeruginosa PAO1 incubated for 18 hrs by CLSI based broth microdilution method; type: functional
[2] = Inhibition of Staphylococcus aureus MraY using UDPMurNAc-dansylpentapeptide as substrate incubated for 3 hrs by fluorescence method

SMILES	MIC [1] [µg/mL]	IC50 [2] [nM]
C[C@@H]([C@H](NC(=O)[C@H](CC(=O)O)NC(=O)N[C@@H](Cc1c[nH]c2ccccc12)C(=O)O)C(=O)N/C=C1\O[C@@H](n2ccc(=O)[nH]c2=O)[C@H](O)[C@@H]1O)N(C)C(=O)[C@@H](N)Cc1cccc(O)c1	> 128	7.6
C[C@@H]([C@H](NC(=O)[C@H](CCCNC(=N)N)NC(=O)N[C@@H](Cc1c[nH]c2ccccc12)C(=O)O)C(=O)N/C=C1\O[C@@H](n2ccc(=O)[nH]c2=O)[C@H](O)[C@@H]1O)N(C)C(=O)[C@@H](N)Cc1cccc(O)c1	> 128	3.4
C[C@@H]([C@H](NC(=O)[C@H](CCC(=O)O)NC(=O)N[C@@H](Cc1c[nH]c2ccccc12)C(=O)O)C(=O)N/C=C1\O[C@@H](n2ccc(=O)[nH]c2=O)[C@H](O)[C@@H]1O)N(C)C(=O)[C@@H](N)Cc1cccc(O)c1	128 (≈ 146 µM)	3.3
CC(=O)N[C@@H](C)C(=O)N[C@H](C(=O)N/C=C1\O[C@@H](n2ccc(=O)[nH]c2=O)[C@H](O)[C@@H]1O)[C@H](C)N(C)C(=O)[C@@H](N)Cc1cccc(O)c1		> 1000
C[C@@H]([C@H](NC(=O)CNC(=O)N[C@@H](Cc1c[nH]c2ccccc12)C(=O)O)C(=O)N/C=C1\O[C@@H](n2ccc(=O)[nH]c2=O)[C@H](O)[C@@H]1O)N(C)C(=O)[C@@H](N)Cc1cccc(O)c1	> 128	4.2
C[C@@H]([C@H](NC(=O)[C@@H]1CCCN1C(=O)N[C@@H](Cc1c[nH]c2ccccc12)C(=O)O)C(=O)N/C=C1\O[C@@H](n2ccc(=O)[nH]c2=O)[C@H](O)[C@@H]1O)N(C)C(=O)[C@@H](N)Cc1cccc(O)c1	> 128	> 500
CC(C)C[C@H](NC(=O)[C@@H](NC(=O)N[C@H](C(=O)O)C(C)C)[C@@H]1CCNC(=N)N1)C(=O)NCCCN[C@H](C(=O)O)[C@H](O[C@@H]1O[C@H](CN)[C@@H](O)[C@H]1O)[C@H]1O[C@@H](n2ccc(=O)[nH]c2=O)[C@H](O)[C@@H]1O [MURAMYCIN D2]		2.8

Further compounds by falling IC50 [2], results first:

MIC [1] [µg/mL]	IC50 [2] [nM]	SMILES
> 128	2.8	C[C@@H]([C@H](NC(=O)[C@H](Cc1cnc[nH]1)NC(=O)N[C@@H](Cc1c[nH]c2ccccc12)C(=O)O)C(=O)N/C=C1\O[C@@H](n2ccc(=O)[nH]c2=O)[C@H](O)[C@@H]1O)N(C)C(=O)[C@@H](N)Cc1cccc(O)c1
> 128	2.1	C[C@@H]([C@H](NC(=O)[C@H](CC(N)=O)NC(=O)N[C@@H](Cc1c[nH]c2ccccc12)C(=O)O)C(=O)N/C=C1\O[C@@H](n2ccc(=O)[nH]c2=O)[C@H](O)[C@@H]1O)N(C)C(=O)[C@@H](N)Cc1cccc(O)c1
> 128	1.8	C[C@@H]([C@H](NC(=O)[C@H](CO)NC(=O)N[C@@H](Cc1c[nH]c2ccccc12)C(=O)O)C(=O)N/C=C1\O[C@@H](n2ccc(=O)[nH]c2=O)[C@H](O)[C@@H]1O)N(C)C(=O)[C@@H](N)Cc1cccc(O)c1
> 128	1.8	C[C@@H]([C@H](NC(=O)[C@H](CCCCN)NC(=O)N[C@@H](Cc1c[nH]c2ccccc12)C(=O)O)C(=O)N/C=C1\O[C@@H](n2ccc(=O)[nH]c2=O)[C@H](O)[C@@H]1O)N(C)C(=O)[C@@H](N)Cc1cccc(O)c1
128 (≈ 150 µM)	1.6	C[C@@H]([C@H](NC(=O)[C@H](CS)NC(=O)N[C@@H](Cc1c[nH]c2ccccc12)C(=O)O)C(=O)N/C=C1\O[C@@H](n2ccc(=O)[nH]c2=O)[C@H](O)[C@@H]1O)N(C)C(=O)[C@@H](N)Cc1cccc(O)c1
128 (≈ 146 µM)	1.3	C[C@@H]([C@H](NC(=O)[C@H](CCC(N)=O)NC(=O)N[C@@H](Cc1c[nH]c2ccccc12)C(=O)O)C(=O)N/C=C1\O[C@@H](n2ccc(=O)[nH]c2=O)[C@H](O)[C@@H]1O)N(C)C(=O)[C@@H](N)Cc1cccc(O)c1
32 (≈ 34.2 µM)	0.44	C[C@@H]([C@H](NC(=O)[C@H](Cc1c[nH]c2ccccc12)NC(=O)N[C@@H](Cc1c[nH]c2ccccc12)C(=O)O)C(=O)N/C=C1\O[C@@H](n2ccc(=O)[nH]c2=O)[C@H](O)[C@@H]1O)N(C)C(=O)[C@@H](N)Cc1cccc(O)c1
